Reference: PubChem BioAssay AID1963849 (Molecular Pharmacology Branch, DTP, NCI, 2024)
Where “and” joins values, the source holds several entries; their conditions need not be identical. Equal entries are not always repeated.

System: 299254-011-R-J1-PDC complex spheroid viability
Test: Anticancer human tumor 299254-011-R-J1-PDC patient-derived melanoma cell line growth inhibition [POLQ]
Conditions: for viability, T/C: stronger effect = lower value
Description: Multicellular complex tumor spheroid response to Polymerase (POL) inhibitors (novobiocin, ART-558, RP6685) in combination with a variety of drugs and investigational agents in selected tumor cell lines
The POL inhibitors (novobiocin, ART-558, and RP6685) were evaluated both individually and in combination with standard of care and investigational anticancer small molecules within a complex spheroid model of solid tumors. . Complex spheroids include a stromal component modeled by human endothelial cells (HUVEC) and fibroblasts modeled by human mesenchymal stem cells (MSCs). The concentration ranges selected for each drug and investigational agent were based upon clinically achievable concentrations if the clinical Cmax of the agent was known.
Compounds. The drugs and investigational agents: novobiocin (NSC847541), ART-558 (NSC835418), RP-6685 (NSC848927), peposertib (NSC802822), ceralasertib (NSC780249), elimusertib (NSC800525), camonsertib (NSC841442), AZD-1390 (NSC803789), olaparib (NSC753686), talazoparib (NSC767125), rucaparib (NSC756644), sotorasib (NSC818433), MRTX-1133 (NSC836407), SN-38 (NSC673596), topotecan (NSC609699), epotoside (NSC141540), doxorubicin (NSC123127), gemcitabine (NSC613327), 5-fluorouracil (NSC19893), paclitaxel (NSC125973), vemurafenib (NSC761431), MSA-2 (NSC828583), SN-011 (NSC837082), adavosertib (NSC754352), prexasertib (NSC758257), carboplatin (NSC241240) and oxaliplatin (NSC266046), were obtained from the National Cancer Institute (NCI) Developmental Therapeutics Program Chemical Repository (21). The FDA-approved anticancer drug set is available from the Developmental Therapeutics Program at https://dtp.cancer.gov/organization/dscb/obtaining/. […] The stock solutions were prepared in dimethyl sulfoxide (DMSO, Sigma-Aldrich, St. Louis, MO, cat. D2650), except for the platinum compounds which were prepared in saline (Quality Biological, Gaithersburg, MD, cat. 114-055-101), at 800-fold the tested concentration and stored at -70 degrees C prior to their use. All drugs and investigational agents were tested over a range starting from a high concentration at or near the clinical Cmax and decreasing in half-log increments. If the clinical Cmax for an agent had not been determined, the highest concentration tested was 10 microM, except for SN-38, which was tested at a high concentration of 1 microM.
Cell Culture. All cells were maintained in an incubator at 37 degrees C and 5% CO2 with 95% humidity. The PDC lines were cultured according to standard operating procedures established by the NCI PDMR (https://pdmr.cancer.gov). Table 3 of the manuscript, lists the cell lines along with the number of the three cell types plated to form the mct-spheroids and media for tumor cell growth. After thawing, all PDC lines, except 997537-175-T-J1-PDC and 415267-285-R-J2-PDC, were cultured in Matrigel-coated flasks prepared with a working solution of 1X Ham's F-12 nutrient mix, without supplementation (Thermo Fisher Scientific, cat. 11765054), 100 U/mL penicillin-streptomycin (Thermo Fisher Scientific, cat. 15140122), and 2.5% Matrigel (Corning Inc., Corning, NY, cat. 354248) for the first three passages. The two PDC lines 997537-175-T-J1-PDC and 415267-285-R-J2-PDC were cultured on uncoated flasks. The 857933-349-R-J2-PDC line was cultured in 6C/Colon 1B media containing advanced DMEM/F-12 (Thermo Fisher Scientific, cat. 12634028), 10 mM HEPES (Thermo Fisher Scientific, cat. 15630080), 1X GlutaMAX supplement (Thermo Fisher Scientific, cat. 35050061), 0.1 mg/mL primocin (InvivoGen, San Diego, CA, cat. ant-pm-2), 10% defined fetal bovine serum, heat inactivated (HyClone Laboratories Inc., Logan, UT, cat. SH30070.03HI), 50% L-WRN conditioned media (ATCC, cat. CRL-3276), 1.25 mM N-Acetyl-L-cysteine (Sigma-Aldrich, cat. A9165), 10 mM nicotinamide (Sigma-Aldrich, cat. N0636), 1X B-27 supplement (Thermo Fisher Scientific, cat. 17504044), 1X N-2 supplement (Thermo Fisher Scientific, cat. […]

[1] = compound alone, run of 11/27/2023
[2] = compound alone, run of 12/05/2023
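Also: spheroids exposed to drugs for one week before measurement.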
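For viability, T/C in this document: percent viability relative to DMSO vehicle control taken as 100%.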

Row | SMILES | viability, T/C (compound 0.0316 µM) | viability, T/C (compound 0.1 µM) | viability, T/C (compound 0.316 µM) | viability, T/C (compound 1 µM) | viability, T/C (compound 3.16 µM) | viability, T/C (compound 10 µM) | IC50 (curve of compound) | IC50 [1] | viability, T/C (compound 0.00316 µM) | viability, T/C (compound 0.01 µM) | IC50 [2] | viability, T/C (compound 0.000316 µM) | viability, T/C (compound 0.001 µM)
1 | CNCc1ccc(-c2[nH]c3cc(F)cc4c3c2CCNC4=O)cc1 | 117% and 108% and 100% | 95.8% and 94.7% and 99.7% | 113% and 105% and 97.2% | 109% and 96.3% and 92.8% | 111% and 113% and 110% | 119% and 107% and 109% | > 10000 nM | – | – | – | – | – | –
2 | COC1C(OC(N)=O)C(O)C(Oc2ccc3c(O)c(NC(=O)c4ccc(O)c(CC=C(C)C)c4)c(=O)oc3c2C)OC1(C)C (stereo not drawn) | – | – | – | – | 102% [middle of 13 runs] | – | – | > 10000 nM | – | – | – | – | –
3 | COc1cc(C2c3cc4c(cc3C(OC3OC5COC(C)OC5C(O)C3O)C3COC(=O)C23)OCO4)cc(OC)c1O (stereo not drawn) | 101% and 98.9% and 106% | 103% and 106% and 84.8% | 93.5% and 92.1% and 111% | 87.4% and 91.4% and 94.4% | 67.7% and 73.7% and 72.5% | 53.7% and 56.4% and 62.8% | > 10000 nM | – | – | – | – | – | –
4 | COc1cc2cc(C(=O)CCC(=O)O)sc2cc1OC | 107% and 89.4% and 110% | 94.7% and 99.2% and 93.1% | 106% and 87.4% and 93.6% | 103% and 100% and 97.2% | 113% and 103% and 108% | 103% and 104% and 101% | > 10000 nM | – | – | – | – | – | –
5 | COc1ccc([C@@H](O)c2cc(-c3ncnc4cc(N5CCOCC5)ccc34)c(F)cc2Cl)nn1 | 106% and 102% and 92.9% | 86.3% and 91.9% and 94.6% | 106% and 96.2% and 105% | 94% and 100% and 99% | 92.6% and 84.1% and 88.5% | 49.3% and 50% and 43.6% | 9870 nM and > 10000 nM and 8570 nM | – | – | – | – | – | –
6 | COc1cccc(OCCCN)c1-c1cc(Nc2cnc(C#N)cn2)n[nH]1 | 60.5% and 75.7% and 77.2% | 52.1% and 57.2% and 56.9% | 37.6% and 41.3% and 50.1% | 38.9% and 37.3% and 45.4% | – | – | 78.9 nM and 135 nM and 268 nM | – | 98.2% and 103% (2×) | 92.8% and 112% and 96% | – | – | –
7 | COc1cccc2c1C(=O)c1c(O)c3c(c(O)c1C2=O)CC(O)(C(=O)CO)CC3OC1CC(N)C(O)C(C)O1 (stereo not drawn) | 83.7% and 89.6% and 90% | 80.1% and 91.1% and 93.3% | 69.1% and 73.4% and 55.2% | 59% and 60.7% and 46% | 9.86% and 15.5% and 12% | 0.74% and 1.67% and 3.35% | 1190 nM and 1200 nM and 612 nM | – | – | – | – | – | –
8 | Cc1cccc(N(C)C(=O)C2C(O)CCN2c2nc(C)cc(C(F)(F)F)c2C#N)c1 (stereo not drawn) | 102% [middle of 13 runs] | 103% [middle of 13 runs] | 102% [middle of 13 runs] | 103% [middle of 13 runs] | 97.3% [middle of 13 runs] | – | – | > 10000 nM | – | – | > 10000 nM | – | –
9 | Cn1ncnc1[C@H]1c2n[nH]c(=O)c3cc(F)cc(c23)N[C@@H]1c1ccc(F)cc1 | 128% and 92.6% and 95.2% | 101% (2×) and 99.2% | – | – | – | – | > 100 nM | – | 110% and 111% and 116% | 124% and 107% and 98.2% | – | 107% and 92.2% and 97.5% | 108% and 87.9% and 99%
10 | Nc1ccc(C#CCN(C(=O)Cc2ncc(C(F)(F)F)cc2C(F)(F)F)c2ccc(F)cc2)nn1 | 102% [middle of 13 runs] | 104% [middle of 13 runs] | 102% [middle of 13 runs] | 96.5% [middle of 13 runs] | 96.5% [middle of 13 runs] | 95.6% [middle of 13 runs] | – | – | – | – | > 10000 nM | – | –
11 | Nc1ccn(C2OC(CO)C(O)C2(F)F)c(=O)n1 (stereo not drawn) | 73.4% and 61.2% and 61% | 37.7% and 47.8% and 35.1% | 42.1% and 40.7% and 40.9% | 40.9% and 50.7% and 30.8% | 37.9% and 48.4% and 41.9% | 41.2% and 42.5% and 33.8% | 70.8 nM and 78.8 nM and 53 nM | – | – | – | – | – | –
12 | O=C(Nc1ccc(O)c(NS(=O)(=O)c2ccc(F)cc2)c1)c1ccc(-c2ccccc2)cc1 | 93.4% and 116% (2×) | 99.8% and 93% and 108% | 110% and 99.2% and 96.8% | 91.6% and 92.6% and 111% | 111% and 88.9% and 86.7% | 52% and 54.8% and 46.6% | > 10000 nM and 9060 nM | – | – | – | – | – | –
13 | O=C(c1cc(Cc2n[nH]c(=O)c3ccccc23)ccc1F)N1CCN(C(=O)C2CC2)CC1 | 94.4% and 93.8% and 100% | 101% and 83.9% and 107% | 98.9% and 81.6% and 109% | 97.1% and 85.2% and 89.6% | 98.6% and 94.9% and 100% | 88.7% and 80.5% and 96.8% | > 10000 nM | – | – | – | – | – | –
14 | O=c1[nH]cc(F)c(=O)[nH]1 | 95.9% and 94% and 105% | 103% and 102% and 106% | 105% and 118% and 103% | 96.4% and 103% and 93.8% | 90.9% and 85.9% and 98.6% | 74.2% and 79.7% and 81.9% | > 10000 nM | – | – | – | – | – | –
